From patent publication US20210324359A1, “USE OF GRAM-NEGATIVE LYSIN-ANTIMICROBIAL PEPTIDE (AMP) POLYPEPTIDE CONSTRUCTS IN TREATING ENDOCARDITIS” (priority 2020, published 2021)
Like-named read-outs stand apart in the source and are kept apart here.

What was measured:
[1] = tested on: P. aeruginosa PA20 recovered from rabbit lung homogenates; format: cell-based, Pseudomonas aeruginosa; conditions: n=48
[2] = tested on: P. aeruginosa isolate CFS 1558 (PA20); format: in vivo
Experimental: A rabbit pulmonary model was used to assess the efficacy of the GN370 lysin alone and in combination with an antibiotic (meropenem). Initially, rabbits were infected intratracheally with P. aeruginosa isolate CFS 1558 (PA20) (3×10^9 CFU). Treatment commenced 6 hours post-infection.

P. aeruginosa PA20 = experiment: MIC of GN370 and meropenem against the infecting strain; format: cell-based, Pseudomonas aeruginosa; conditions: Pseudomonas aeruginosa

For C[C@@H](O)[C@H]1C(=O)N2C(C(=O)O)=C(S[C@@H]3CN[C@H](C(=O)N(C)C)C3)[C@H](C)[C@H]12 [Meropenem, meropenem, reference compound], the “number of isolates with Meropenem MIC […] μg/mL” value (from here on “number of isolates”) ([1]; isolates from GN370 (3 mg/kg) + Meropenem (20 mg/kg) group) was 48, the “number of isolates” value ([1]; isolates from GN370 (3 mg/kg) group) was 48 and the “number of isolates” value ([1]; isolates from GN370 (10 mg/kg) + Meropenem (20 mg/kg) group) was 48. The “number of isolates” value ([1]; isolates from GN370 (10 mg/kg) group) was 48, the “number of isolates” value ([1]; isolates from GN370 (30 mg/kg) + Meropenem (20 mg/kg) group) was 48 and the “number of isolates” value ([1]; isolates from GN370 (30 mg/kg) group) was 48. For the same compound, the “number of isolates” value ([1]; isolates from Meropenem (20 mg/kg) group) was 48, the “number of isolates” value ([1]; isolates from Pre-treatment control group) was 48 and the “number of isolates” value ([1]; isolates from Vehicle control group) was 48. For the same compound, the “decrease of mean bacterial density in lungs” value ([2]; agent alone, compared to the starting CFU and the vehicle control group) was “about 2 log10 CFU/g”, the “Bacterial burden, Kidneys” value ([2]; meropenem 20 mg/kg) was 3.92 ± 0.63 log10 CFU/g and the “Bacterial burden, Lung 1” value ([2]; meropenem 20 mg/kg) was 5.80 ± 0.88 log10 CFU/g. For the same compound, the “Bacterial burden, Lung 2” value ([2]; meropenem 20 mg/kg) was 5.98 ± 1.14 log10 CFU/g, the “Bacterial burden, Spleen” value ([2]; meropenem 20 mg/kg) was 3.62 ± 0.21 log10 CFU/g and the “Log10 CFU/g of vegetation” value ([2]; rabbit lung, Meropenem 20 mg/kg) was 6.12 ± 0.89 Log10 CFU/g. It also gave an MIC (P. aeruginosa PA20; GN370, read-out: MIC against P. aeruginosa) of 16 µg/mL and an MIC (P. aeruginosa PA20; PA20, read-out: MIC of P. aeruginosa PA20) of 16 µg/mL.
